Assays:
[1] = target: purified human autoBACE-2 (Homo sapiens (Human), UniProt Q9Y5Z0); assay: BACE-2 Assay (BACE-HTRF assay); type: biochemical; settings: Ki calculated from IC50 using the Cheng-Prusoff equation; QSY7-EISEVNLDAEFC-Eu-amide substrate, pH 5.0
Protocol: Inhibitor IC50s at purified human autoBACE-2 are determined in a time-resolved endpoint proteolysis assay that measures hydrolysis of the QSY7-EISEVNLDAEFC-Eu-amide FRET peptide substrate (BACE-HTRF assay). BACE-mediated hydrolysis of this peptide results in an increase in relative fluorescence (RFU) at 620 nm after excitation with 320 nm light. Inhibitor compounds, prepared at 3× the desired final concentration in 1×BACE assay buffer (20 mM sodium acetate pH 5.0, 10% glycerol, 0.1% Brij-35) supplemented with 7.5% DMSO are preincubated with an equal volume of autoBACE-2 enzyme diluted in 1×BACE assay buffer (final enzyme concentration 1 nM) in black 384-well NUNC plates for 30 minutes at 30° C. […] DMSO is present at 5% final concentration in the assay. Following laser excitation of sample wells at 320 nm, the fluorescence signal at 620 nm is collected for 400 ms following a 50 μs delay on a RUBYstar HTRF plate reader (BMG Labtechnologies). Raw RFU data is normalized to maximum (1.0 nM BACE/DMSO) and minimum (no enzyme/DMSO) RFU values. IC50s are determined by nonlinear regression analysis (sigmoidal dose response, variable slope) of percent inhibition data with minimum and maximum values set to 0 and 100 percent respectively. Similar IC50s are obtained when using raw RFU data. The Ki values are calculated from the IC50 using the Cheng-Prusoff equation.

[2] = target: Recombinant human soluble BACE1 catalytic domain (Homo sapiens (Human), UniProt P56817); assay: BACE1 HTRF FRET Assay; type: biochemical; settings: Ki calculated from IC50 using the Cheng-Prusoff equation; QSY7-APPswe-Eu substrate, pH 5.0; read-out: BACE-1 Ki
Source text: Reagents: Na^+-Acetate pH 5.0; 1% Brij-35; Glycerol; Dimethyl Sulfoxide (DMSO); Recombinant human soluble BACE1 catalytic domain (>95% pure); APP Swedish mutant peptide substrate (QSY7-APP^swe-Eu): QSY7-EISEVNLDAEFC-Europium-amide.
A homogeneous time-resolved FRET assay can be used to determine IC50 values for inhibitors of the soluble human BACE1 catalytic domain. This assay monitors the increase of 620 nm fluorescence that resulted from BACE1 cleavage of an APPswedish APP^swe mutant peptide FRET substrate (QSY7-EISEVNLDAEFC-Europium-amide). This substrate contains an N-terminal QSY7 moiety that serves as a quencher of the C-terminal Europium fluorophore (620 nm Em). In the absence of enzyme activity, 620 nm fluorescence is low in the assay and increased linearly over 3 hours in the presence of uninhibited BACE1 enzyme. Inhibition of BACE1 cleavage of the QSY7-APP^swe-Eu substrate by inhibitors is manifested as a suppression of 620 nm fluorescence.
Varying concentrations of inhibitors at 3× the final desired concentration in a volume of 10 ul are preincubated with purified human BACE1 catalytic domain (3 nM in 10 μl) for 30 minutes at 30° C. in reaction buffer containing 20 mM Na-Acetate pH 5.0, 10% glycerol, 0.1% Brij-35 and 7.5% DSMO. Reactions are initiated by addition of 10 μl of 600 nM QSY7-APP^swe-Eu substrate (200 nM final) to give a final reaction volume of 30 μl in a 384 well Nunc HTRF plate. The reactions are incubated at 30° C. for 1.5 hours. The 620 nm fluorescence is then read on a Rubystar HTRF plate reader (BMG Labtechnologies) using a 50 millisecond delay followed by a 400 millisecond acquisition time window. Inhibitor IC50 values are derived from non-linear regression analysis of concentration response curves. Ki values are then calculated from IC50 values using the Cheng-Prusoff equation using a previously determined […] of 8 μM for the QSY7-APP^swe-Eu substrate at BACE1.

Chain of Recombinant human soluble BACE1 catalytic domain (P56817 75-416): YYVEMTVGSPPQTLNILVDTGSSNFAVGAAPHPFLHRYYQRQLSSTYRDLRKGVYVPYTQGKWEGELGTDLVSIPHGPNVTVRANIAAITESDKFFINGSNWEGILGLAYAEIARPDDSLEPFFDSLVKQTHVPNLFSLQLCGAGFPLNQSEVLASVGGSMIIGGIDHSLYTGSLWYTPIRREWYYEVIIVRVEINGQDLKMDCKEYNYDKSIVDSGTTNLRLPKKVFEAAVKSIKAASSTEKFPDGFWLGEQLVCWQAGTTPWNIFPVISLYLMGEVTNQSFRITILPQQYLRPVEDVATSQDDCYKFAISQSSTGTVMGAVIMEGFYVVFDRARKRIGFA
Chain of purified human autoBACE-2 (Q9Y5Z0 63-518): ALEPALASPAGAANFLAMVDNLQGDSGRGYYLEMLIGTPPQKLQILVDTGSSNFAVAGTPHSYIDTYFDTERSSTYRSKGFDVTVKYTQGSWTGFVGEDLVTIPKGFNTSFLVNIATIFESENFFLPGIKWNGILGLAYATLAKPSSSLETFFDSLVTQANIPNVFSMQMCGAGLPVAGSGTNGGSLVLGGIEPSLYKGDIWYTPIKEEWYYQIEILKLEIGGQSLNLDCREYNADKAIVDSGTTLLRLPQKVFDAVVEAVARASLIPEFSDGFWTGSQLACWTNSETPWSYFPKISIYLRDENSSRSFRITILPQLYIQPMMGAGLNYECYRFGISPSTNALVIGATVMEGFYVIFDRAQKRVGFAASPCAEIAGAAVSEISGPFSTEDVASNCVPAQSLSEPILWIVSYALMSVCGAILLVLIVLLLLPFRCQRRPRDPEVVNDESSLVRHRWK

| Ki [1] [nM] | Ki [2] [nM] | SMILES |
| --- | --- | --- |
| 96.3 | 184 | COc1ccc(F)c([C@]23CO[C@@H](c4ccc(F)cc4)C[C@H]2S(=O)(=O)C(C)(C)C(=N)N3)c1 [Example 12, (4aS,7R,8aR)-4a-(2-fluoro-5-methoxyphenyl)-7-(4-fluorophenyl)-3-imino-2,2-dimethyloctahydropyrano[4,3-b][1,4]thiazine 1,1-dioxide] |
| 11.7 | 115 | CC1(C)C(=N)N[C@@]2(c3cc(OCC4CC4)ccc3F)CO[C@@H](c3ccc(F)cc3)C[C@H]2S1(=O)=O [Example 13, (4aS,7R,8aR)-4a-(5-(cyclopropylmethoxy)-2-fluorophenyl)-7-(4-fluorophenyl)-3-imino-2,2-dimethyloctahydropyrano[4,3-b][1,4]thiazine 1,1-dioxide] |
| 1.9 | 3.9 | CC1(C)C(=N)N[C@@]2(c3cc(Oc4ncccc4F)ccc3F)CO[C@@H](c3ccc(F)cc3)C[C@H]2S1(=O)=O [Example 14, (4aS,7R,8aR)-4a-(2-fluoro-5-((3-fluoropyridin-2-yl)oxy)phenyl)-7-(4-fluorophenyl)-3-imino-2,2-dimethyloctahydropyrano[4,3-b][1,4]thiazine 1,1-dioxide] |
| 19.8 | 17.9 | CC1(C)C(=N)N[C@@]2(c3cc(Oc4cc(C#N)ccn4)ccc3F)CO[C@@H](c3ccc(F)cc3)C[C@H]2S1(=O)=O [Example 15, 2-(4-fluoro-3-((4aS,7R,8aR)-7-(4-fluorophenyl)-3-imino-2,2-dimethyl-1,1-dioxidooctahydropyrano[4,3-b][1,4]thiazin-4a-yl)phenoxy)isonicotinonitrile] |
| 2020 | 2860 | COc1ccc(F)c([C@]23CO[C@@H](CO)C[C@H]2S(=O)(=O)C(C)(C)C(=N)N3)c1 [Example 16, (4aS,7R,8aR)-4a-(2-fluoro-5-methoxyphenyl)-7-(hydroxymethyl)-3-imino-2,2-dimethyloctahydropyrano[4,3-b][1,4]thiazine 1,1-dioxide] |
| 293 | 300 | CC1(C)C[C@@H]2[C@](c3ccccc3F)(CO1)NC(=N)C(C)(C)S2(=O)=O [Example 17, (4aS,8aR)-4a-(2-fluorophenyl)-2,2,7,7-tetramethyltetrahydro-2H,5H-pyrano[4,3-b][1,4]thiazin-3(4H)-imine 1,1-dioxide] |
| 42.2 | 22.4 | CC1(C)C[C@@H]2[C@](c3cc(Oc4ncccc4F)ccc3F)(CO1)NC(=N)C(C)(C)S2(=O)=O [Example 18, (4aS,8aR)-4a-{2-fluoro-5-[(3-fluoropyridin-2-yl)oxy]phenyl}-2,2,7,7-tetramethyltetrahydro-2H,5H-pyrano[4,3-b][1,4]thiazin-3(4H)-imine 1,1-dioxide] |
| 65.2 | 33.8 | CC1(C)C[C@@H]2[C@](c3cc(Oc4cc(C#N)ccn4)ccc3F)(CO1)NC(=N)C(C)(C)S2(=O)=O [Example 19] |
| 102 | 53.2 | CC1(C)C[C@@H]2[C@](c3cc(Oc4ncc(F)cc4F)ccc3F)(CO1)NC(=N)C(C)(C)S2(=O)=O [Example 20, (4aS,8aR)-4a-{5-[(3,5-difluoropyridin-2-yl)oxy]-2-fluorophenyl}-2,2,7,7-tetramethyltetrahydro-2H,5H-pyrano[4,3-b][1,4]thiazin-3(4H)-imine 1,1-dioxide] |
| 88 | 9.7 | CC1(C)C[C@@H]2[C@](c3cc(Oc4cc(F)cnc4F)ccc3F)(CO1)NC(=N)C(C)(C)S2(=O)=O [Example 21, (4aS,8aR)-4a-{5-[(2,5-difluoropyridin-3-yl)oxy]-2-fluorophenyl}-2,2,7,7-tetramethyltetrahydro-2H,5H-pyrano[4,3-b][1,4]thiazin-3(4H)-imine 1,1-dioxide] |
| 35.6 | 120 | CC1(C)C[C@@H]2[C@](c3cc(OCC4CC4)ccc3F)(CO1)NC(=N)C(C)(C)S2(=O)=O [Example 22, (4aS,8aR)-4a-[5-(cyclopropylmethoxy)-2-fluorophenyl]-2,2,7,7-tetramethyltetrahydro-2H,5H-pyrano[4,3-b][1,4]thiazin-3(4H)-imine 1,1-dioxide] |
| 66.7 | 172 | CC(C)COc1ccc(F)c([C@]23COC(C)(C)C[C@H]2S(=O)(=O)C(C)(C)C(=N)N3)c1 [Example 23, (4aS,8aR)-4a-[2-fluoro-5-(2-methylpropoxy)phenyl]-2,2,7,7-tetramethyltetrahydro-2H,5H-pyrano[4,3-b][1,4]thiazin-3(4H)-imine 1,1-dioxide] |
| 195 | 185 | CC(C)[C@H]1C[C@@H]2[C@](c3ccccc3F)(CO1)NC(=N)C(C)(C)S2(=O)=O [Example 25, (4aS,7R,8aR)-4a-(2-fluorophenyl)-2,2-dimethyl-7-(propan-2-yl)tetrahydro-2H,5H-pyrano[4,3-b][1,4]thiazin-3(4H)-imine 1,1-dioxide] |

| SMILES | Ki [1] [nM] | Ki [2] [nM] |
| --- | --- | --- |
| CC1(C)C[C@@H]2[C@](c3cc(OC4CCC4)ccc3F)(CO1)NC(=N)C(C)(C)S2(=O)=O [Example 24] | 109 | 183 |

— patent publication US10689401B2, “C5-C6-oxacyclic fused iminothiazine dioxide compounds bearing an ether linker as BACE inhibitors, compositions, and their use” (Merck Sharp & Dohme Corp., priority 2016, dated 2020)
